Results reported in ChEMBL document CHEMBL5729105, “CD73 inhibitors” (2022).
pIC50: −log10 of the molar value.

Biological target: 5'-nucleotidase (Homo sapiens, UniProt P21589)
Assay: Biochemical Assay: Assay Reaction ConditionsAssay Volume: 70 μlReaction Volume: 50 μlCD73: 0.3208 nMAMP: 15 μMAssay Buffer: 25 mM Tris-HCL, pH 7.4, 0.01% Brij-35, 0.01% BSA, 5 mM MgCl2Assay Procedure:Used 384 clear plate.Made dose titration of testing compounds in assay buffer, 10 points ½ log titrations in duplicates starting at 100 μM.Added 25 μl of CD73 to each well for a final concentration of 320 pM.Incubated at RT for 15 min.Added 25 μl of AMP to each well for a final concentration of 15 μM.Incubated at RT for 10 min.Added 10 μl of Malachite Green Reagent A, incubate at RT for 10 min.Added 10 of Malachite Green Reagent B, incubate at RT for 45 min.Read the Absorbance on Envision plate reader using excitation filter: Cy5 620 nM.The ability of the compounds disclosed herein to inhibit CD73 activity was quantified and the respective IC50 values were determined.

Sequence of 5'-nucleotidase (P21589 whole entry): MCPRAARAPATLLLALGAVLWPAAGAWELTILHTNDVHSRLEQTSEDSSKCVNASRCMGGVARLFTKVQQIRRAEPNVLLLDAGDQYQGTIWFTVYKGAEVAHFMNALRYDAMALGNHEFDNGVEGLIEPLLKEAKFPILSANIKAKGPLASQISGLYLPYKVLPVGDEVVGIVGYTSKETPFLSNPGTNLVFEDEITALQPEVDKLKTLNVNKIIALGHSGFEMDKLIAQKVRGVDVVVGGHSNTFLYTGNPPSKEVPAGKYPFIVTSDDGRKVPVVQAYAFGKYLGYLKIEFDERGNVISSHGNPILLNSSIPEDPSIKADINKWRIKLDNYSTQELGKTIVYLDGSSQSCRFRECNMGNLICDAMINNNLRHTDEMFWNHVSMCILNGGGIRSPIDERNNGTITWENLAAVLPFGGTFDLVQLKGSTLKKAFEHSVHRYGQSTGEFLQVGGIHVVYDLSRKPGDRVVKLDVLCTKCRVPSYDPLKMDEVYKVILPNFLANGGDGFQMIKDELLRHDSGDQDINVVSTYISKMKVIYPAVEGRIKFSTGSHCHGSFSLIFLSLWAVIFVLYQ

`O=P(O)(O)[C@H](CO)OC[C@H]1O[C@@H](n2ncc3c(NC4CCCC4)nc(Cl)nc32)[C@H](O)[C@@H]1O` (single isomer, unassigned) was tested. Which pIC50 did it give?
The pIC50 was greater than 7.00.
